In experiment [1] the test system is MCF7. As to the kind of experiment: Cytotoxicity against human MCF7 cells after 24 hrs using Annexin VeFITC/propidium iodide staining by MTT assay. The format is functional, cell-based. The conditions noted are these: MCF7, 24 h.
Experiment [2] relates to A-431. In words: Cytotoxicity against human A431 cells after 24 hrs […] by MTT assay. The format is functional, cell-based. The conditions noted are these: A-431, 24 h. On the technique in general: Formazan colour is commonly taken as a measure of viable cells.
Experiment [3] is described as follows: Inhibition of bovine brain FAK after 20 mins by turbidimetry. Details: species or system Bos taurus.
In experiment [4] the test system is A-431. In words: Induction of apoptosis in human A431 cells assessed as late apoptotic cells at 5 nM after 24 hrs using Annexin VeFITC/propidium iodide staining by flow cytometry. The format is functional.
The test system of experiment [5] is A-431. As to the kind of experiment: Induction of apoptosis in human A431 cells assessed as early apoptotic cells at 5 nM after 24 hrs using Annexin VeFITC/propidium iodide staining by flow cytometry. The format is functional. In general terms: Flow cytometry measures light scatter and fluorescence of single cells or particles in a stream.
The subject of experiment [6] is A-431. As to the kind of experiment: Induction of apoptosis in human A431 cells assessed as necrotic cells at 5 nM after 24 hrs using Annexin VeFITC/propidium iodide staining by flow cytometry. The format is functional.
For experiment [7], the system named is A-431. In words: Induction of apoptosis in human A431 cells assessed as early apoptotic cells at 10 nM after 24 hrs using Annexin VeFITC/propidium iodide staining by flow cytometry. The format is functional.
Experiment [8] concerns A-431. In words: Induction of apoptosis in human A431 cells assessed as late apoptotic cells at 10 nM after 24 hrs using Annexin VeFITC/propidium iodide staining by flow cytometry. Type of experiment: functional.
The subject of experiment [9] is A-431. In words: Induction of apoptosis in human A431 cells assessed as necrotic cells at 10 nM after 24 hrs using Annexin VeFITC/propidium iodide staining by flow cytometry. The format is functional.
For experiment [10], the system named is A-431. In words: Induction of apoptosis in human A431 cells assessed as early apoptotic cells at 20 nM after 24 hrs using Annexin VeFITC/propidium iodide staining by flow cytometry. Type of experiment: functional.
The subject of experiment [11] is A-431. In words: Induction of apoptosis in human A431 cells assessed as late apoptotic cells at 20 nM after 24 hrs using Annexin VeFITC/propidium iodide staining by flow cytometry. The format is functional.
Experiment [12] deals with A-431. As to the kind of experiment: Induction of apoptosis in human A431 cells assessed as necrotic cells at 20 nM after 24 hrs using Annexin VeFITC/propidium iodide staining by flow cytometry. The format is functional.
In experiment [13] the test system is A-431. In words: Induction of apoptosis in human A431 cells assessed as early apoptotic cells at 40 nM after 24 hrs using Annexin VeFITC/propidium iodide staining by flow cytometry. The format is functional.
For experiment [14], the system named is A-431. As to the kind of experiment: Induction of apoptosis in human A431 cells assessed as late apoptotic cells at 40 nM after 24 hrs using Annexin VeFITC/propidium iodide staining by flow cytometry. The format is functional.
Experiment [15] has as its system A-431. As to the kind of experiment: Induction of apoptosis in human A431 cells assessed as necrotic cells at 40 nM after 24 hrs using Annexin VeFITC/propidium iodide staining by flow cytometry. The format is functional.
In experiment [16] the test system is A-431. As to the kind of experiment: Induction of apoptosis in human A431 cells assessed as viable cells at 5 nM after 24 hrs using Annexin VeFITC/propidium iodide staining by flow cytometry. Type of experiment: functional. The conditions noted are these: A-431, 24 h, read-out: Activity.
Experiment [17] relates to A-431. In words: Induction of apoptosis in human A431 cells assessed as viable cells at 10 nM after 24 hrs using Annexin VeFITC/propidium iodide staining by flow cytometry. Type of experiment: functional. The settings on record: A-431, 24 h, read-out: Activity.
For experiment [18], the system named is A-431. As to the kind of experiment: Induction of apoptosis in human A431 cells assessed as viable cells at 20 nM after 24 hrs using Annexin VeFITC/propidium iodide staining by flow cytometry. The format is functional. The conditions noted are these: A-431, 24 h, read-out: Activity.
Experiment [19] deals with A-431. In words: Induction of apoptosis in human A431 cells assessed as viable cells at 40 nM after 24 hrs using Annexin VeFITC/propidium iodide staining by flow cytometry. Type of experiment: functional. The conditions noted are these: A-431, 24 h, read-out: Activity.
For experiment [20], the system named is A-431. As to the kind of experiment: Induction of apoptosis in human A431 cells after 24 hrs using Annexin VeFITC/propidium iodide staining by flow cytometry. The format is functional, cell-based.

The values that follow come from ChEMBL document CHEMBL2034882, “Synthesis, biological evaluation and molecular docking studies of novel 2-(1,3,4-oxadiazol-2-ylthio)-1-phenylethanone derivatives” (Bioorg Med Chem, 2012).

Take `O=C(CSc1nnc(-c2ccccc2F)o1)c1ccccc1`: the IC50 (as a rule, the concentration needed to halve the response being measured) in experiment [1] was 260 nM; in experiment [2], 50 nM; in experiment [3], 1220 nM.

As to `COc1cc(OC)cc(-c2nnc(SCC(=O)c3ccc(Br)cc3)o2)c1`, the figures for the IC50 in experiment [1], in experiment [2] and in experiment [3] were 270 nM, 60 nM and 1080 nM, respectively.

In the case of `CC(C)(C)c1ccc(-c2nnc(SCC(=O)c3ccccc3)o2)cc1`, the values for the IC50 in experiment [1], in experiment [2] and in experiment [3] were 50 nM, 170 nM and 18600 nM, respectively.

As to `O=C(CSc1nnc(-c2cccc3ccccc23)o1)c1ccccc1`, the IC50 in experiment [1] was found to be 230 nM; in experiment [2] it was 130 nM; in experiment [3] it was 5800 nM.

In the case of `COc1ccccc1-c1nnc(SCC(=O)c2ccccc2)o1`, the IC50 in experiment [1] came out at 2070 nM; in [2], 20 nM; in [3], 580 nM.

On to `O=C(CSc1nnc(-c2ccnc(Cl)c2)o1)c1ccc(Br)cc1`, for which the values for the IC50 in [1], in [2] and in [3] were 270 nM, 50 nM and 970 nM, respectively.

With `COc1cc(OC)cc(-c2nnc(SCC(=O)c3ccccc3)o2)c1`, the IC50 in experiment [1] came to 170 nM; in experiment [2] it was 40 nM; in [3] it was 650 nM.

Take `O=C(CSc1nnc(-c2ccncc2)o1)c1ccccc1`: the IC50 in experiment [1] turned out to be 370 nM; in experiment [2], 1000 nM; in experiment [3], 98700 nM.

On to `CC(C)(C)c1ccc(-c2nnc(SCC(=O)c3ccc(Br)cc3)o2)cc1`, for which the IC50 worked out at 1950 nM in experiment [1], 100 nM in experiment [2] and 9800 nM in experiment [3].

On to `O=C(CSc1nnc(-c2ccccc2F)o1)c1ccc(Br)cc1`, for which the values for the IC50 in experiment [1], in [2] and in [3] were 240 nM, 200 nM and 19800 nM, respectively.

For the compound `O=C(CSc1nnc(-c2ccncc2)o1)c1ccc(Br)cc1`, the IC50 in experiment [1] turned out to be 4230 nM; in experiment [2], 780 nM; in experiment [3] it was 76300 nM.

Turning to `CN(C)c1ccc(-c2nnc(SCC(=O)c3ccc(Br)cc3)o2)cc1`, the IC50 in [1] was determined as 550 nM; in experiment [2] it was 200 nM; in experiment [3] it was 21500 nM.

Turning to `Cc1ccc(-c2nnc(SCC(=O)c3ccc(Br)cc3)o2)c(O)c1`, the IC50 in experiment [1] worked out at 2070 nM; in [2] it was 50 nM; in experiment [3] it was 2670 nM.

As to `Nc1cc(-c2nnc(SCC(=O)c3ccc(Br)cc3)o2)ccn1`, the IC50 in [1] was found to be 200 nM; in experiment [2], 60 nM; in [3], 1150 nM.

On to `Nc1cc(-c2nnc(SCC(=O)c3ccccc3)o2)ccn1`, for which the Activity in experiment [4] amounted to 9.47%; in experiment [5], 16.77%; in experiment [6], 8%; in experiment [7], 17.47%; in experiment [8] it was 12.23%; in [9], 9%. For the same compound, the Activity in experiment [10] was 28.92%; in experiment [11], 15.26%; in [12], 6%; in experiment [13], 43.51%; in [14], 16.65%; in experiment [15], 6%. In addition, the Activity entry in [20] was “Dose-dependent effect”. Further, the half-maximal inhibitory concentration (IC50) in experiment [1] came to 140 nM; in [2], 10 nM; in experiment [3], 20 nM. In [16], the viability at 0.005 µM amounted to 65.8%. The viability at 0.01 µM in [17] came out at 61.3%. For the same compound, in experiment [18], the viability at 0.02 µM was 49.8%. Further, the viability at 0.04 µM in experiment [19] came to 33.8%.

With `CN(C)c1ccc(-c2nnc(SCC(=O)c3ccccc3)o2)cc1`, the IC50 is 210 nM in [1], 160 nM in experiment [2] and 17500 nM in [3].

Take `COc1ccc(-c2nnc(SCC(=O)c3ccccc3)o2)c(O)c1`: the IC50 worked out at 280 nM in experiment [1], 180 nM in experiment [2] and 20500 nM in experiment [3].

With `CCOc1ccccc1-c1nnc(SCC(=O)c2ccccc2)o1`, the IC50 is 2670 nM in [1], 650 nM in [2] and 59800 nM in [3].

In the case of `O=C(CSc1nnc(-c2ccnc(Cl)c2)o1)c1ccccc1`, the IC50 in experiment [1] came out at 1290 nM; in [2], 3200 nM; in [3], 302000 nM.

In the case of `CCOc1ccccc1-c1nnc(SCC(=O)c2ccc(Br)cc2)o1`, the IC50 came out at 460 nM in experiment [1], 360 nM in experiment [2] and 40500 nM in experiment [3].

Take `CN[C@@H]1C[C@H]2O[C@@](C)([C@@H]1OC)n1c3ccccc3c3c4c(c5c6ccccc6n2c5c31)C(=O)NC4` [STAUROSPORINE]: in [2], inhibition was half-maximal at 70 nM (IC50).

`O=C(CSc1nnc(-c2cccc3ccccc23)o1)c1ccc(Br)cc1`: the IC50 in experiment [1] is 260 nM; in experiment [2] it was 160 nM; in experiment [3] it was 17900 nM.

For the compound `Cc1ccc(-c2nnc(SCC(=O)c3ccccc3)o2)c(O)c1`, the IC50 came out at 150 nM in [1], 60 nM in [2] and 760 nM in experiment [3].

With `COc1ccccc1-c1nnc(SCC(=O)c2ccc(Br)cc2)o1`, the values for the IC50 in experiment [1], in experiment [2] and in experiment [3] were 600 nM, 80 nM and 1350 nM, respectively.

As to `COc1ccc(-c2nnc(SCC(=O)c3ccc(Br)cc3)o2)c(O)c1`, the results for the half-inhibitory concentration (IC50) in experiment [1], in [2] and in experiment [3] were 260 nM, 330 nM and 35400 nM, respectively.
